Measurements reported in patent US12173018B2, “Penicillin-binding protein inhibitors” (priority 2018, dated 2024).
Read-outs that look alike come from different tables or passages of the source.

Key:
E. coli PBP4 = E. coli PBP4 (Escherichia coli (strain K12), UniProt P24228); assay: E. coli PBP4 Bocillin-FL fluorescence polarization competition binding assay; conditions: fluorescence polarization competition binding with Bocillin-FL; read-out: E. coli K12 PBP4 Potency (EC50)
Description: To determine the ability of boronic acid-based test PBP inhibitors to bind Penicillin Binding Proteins (PBPs), Bocillin-FL (fluorescently-labeled penicillin V; ThermoFisher Scientific) was used in a fluorescence polarization (FP) competition binding assay to assess inhibitor binding to PBP2, PBP3 or PBP4 from Escherichia coli. PBPs were cloned and purified as described previously (King, D. T, et al., ACS Infectious Diseases 2015, 1, 175-184). To establish assay conditions for competition binding, an enzyme titration/saturation binding experiment was initially performed. Bocillin-FL was prepared at 0.2 μM in a buffer comprised of 50 mM Hepes (pH 8.0), 300 mM NaCl and 5% (v/v) glycerol. Saturation binding was performed by mixing 40 μl of PBP solutions ranging in concentrations from 0-12 μM with 40 μl of the 0.2 μM Bocillin-FL solution, in individual wells of a black 384-well microplate. FP was measured immediately upon mixing (Excitation, 490 nm; Emission, 520 nm; g-factor, 0.96), using a Cytation3 (BioTek) microplate reader and measured continuously for up to 120 minutes. […] Assays (80 μl final volume) were performed with PBPs at a final concentration of 1.5 μM, Bocillin-FL at 0.1 μM and beta-lactam concentrations that ranged from 0-1000 μM. […] Bocillin-FL was added and the FP immediately measured for 60 minutes (90 minutes for PBP2). The beta-lactam potency was reported as the concentration of beta-lactam required to reduce binding of Bocillin-FL by […] (EC50). […] Binding assays for boronic acid PBP inhibitors were performed in an identical fashion.

E. coli PBP2 = E. coli PBP2 (Escherichia coli (strain K12), UniProt P0AD65); assay: E. coli PBP2 Bocillin-FL fluorescence polarization competition binding assay
Outline: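 Purified PBP2 at 1.5 μM final was preincubated with boronic acid inhibitor, then Bocillin-FL added to 0.1 μM final in Hepes pH 8.0/NaCl/glycerol buffer. Polarization was monitored 90 min; the concentration halving probe binding is reported as EC50.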

P. aeruginosa ATCC 35151 = assay: microbe, parasite or virus in culture; format: cell-based; conditions: Pseudomonas aeruginosa, ATCC35151; hyper-permeable P. aeruginosa ATCC 35151; read-out: MIC P. aeruginosa ATCC 35151
Outline: (§1)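 Broth microdilution MICs followed CLSI methods in cation-supplemented Mueller-Hinton broth, with 2-fold serial compound dilutions. Log-phase cultures grown 3–5 h were added to a starting inoculum of 5×10^5 CFU/mL and incubated 16–20 h at 37 °C. The MIC was read visually as the lowest concentration with no growth.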

P. aeruginosa PAO1 = assay: Broth microdilution MIC, P. aeruginosa PAO1; format: cell-based; conditions: Pseudomonas aeruginosa; P. aeruginosa PAO1, broth microdilution; read-out: MIC P. aeruginosa PAO1
Outline: as §1

A. baumannii ATCC 19606 = assay: Broth microdilution MIC, A. baumannii ATCC 19606; format: cell-based; conditions: Acinetobacter baumannii, ATCC19606; A. baumannii ATCC 19606, broth microdilution; read-out: MIC A. baumannii ATCC 19606
Outline: as §1

[1] = fluorescence polarization competition binding with Bocillin-FL, read-out: E. coli K12 PBP2 Potency (EC50)

Chain of E. coli PBP2 (P0AD65 whole entry): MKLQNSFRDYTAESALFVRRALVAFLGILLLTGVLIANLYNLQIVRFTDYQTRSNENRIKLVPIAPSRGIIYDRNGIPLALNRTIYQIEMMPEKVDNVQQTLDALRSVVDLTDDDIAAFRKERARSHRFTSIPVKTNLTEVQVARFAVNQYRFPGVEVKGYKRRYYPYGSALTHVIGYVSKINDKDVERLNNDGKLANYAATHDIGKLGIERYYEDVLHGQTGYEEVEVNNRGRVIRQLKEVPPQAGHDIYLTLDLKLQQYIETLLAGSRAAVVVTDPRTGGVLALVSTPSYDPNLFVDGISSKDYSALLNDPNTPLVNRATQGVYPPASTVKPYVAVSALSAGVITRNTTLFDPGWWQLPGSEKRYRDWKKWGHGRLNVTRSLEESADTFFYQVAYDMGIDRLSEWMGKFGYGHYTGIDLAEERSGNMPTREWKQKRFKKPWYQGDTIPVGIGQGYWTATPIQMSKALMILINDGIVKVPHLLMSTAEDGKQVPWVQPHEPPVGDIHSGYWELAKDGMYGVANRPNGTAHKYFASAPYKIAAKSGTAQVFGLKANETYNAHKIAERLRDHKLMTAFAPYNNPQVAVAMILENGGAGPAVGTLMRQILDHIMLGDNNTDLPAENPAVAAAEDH
Chain of E. coli PBP4 (P24228 21-477): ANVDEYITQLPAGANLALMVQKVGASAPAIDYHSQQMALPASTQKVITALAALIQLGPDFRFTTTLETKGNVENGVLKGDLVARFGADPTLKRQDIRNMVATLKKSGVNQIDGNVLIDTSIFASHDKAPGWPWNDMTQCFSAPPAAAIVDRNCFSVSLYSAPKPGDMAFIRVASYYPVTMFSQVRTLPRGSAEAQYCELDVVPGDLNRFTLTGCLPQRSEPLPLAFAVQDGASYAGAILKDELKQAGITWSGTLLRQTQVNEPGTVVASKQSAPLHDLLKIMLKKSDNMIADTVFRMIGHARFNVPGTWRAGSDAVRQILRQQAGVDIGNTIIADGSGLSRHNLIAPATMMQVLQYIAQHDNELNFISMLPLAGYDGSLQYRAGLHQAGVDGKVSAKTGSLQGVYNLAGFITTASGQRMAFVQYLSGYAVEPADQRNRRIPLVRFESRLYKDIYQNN

Structure (SMILES)	EC50 (E. coli PBP4)	EC50 (E. coli PBP2; [1])	EC50 (E. coli PBP2)	MIC (P. aeruginosa ATCC 35151)	MIC (P. aeruginosa PAO1)	MIC (A. baumannii ATCC 19606)
CCN1CCN(C(=O)NC(C(=O)N[C@H]2Cc3cccc(C(=O)O)c3OB2O)c2ccc(O)c(O)c2Cl)C(=O)C1=O (stereo partly drawn) [Example 37, (3R)-3-(2-(2-chloro-3,4-dihydroxyphenyl)-2-(4-ethyl-2,3-dioxopiperazine-1-carboxamido)acetamido)-2-hydroxy-3,4-dihydro-2H-benzo[e][1,2]oxaborinine-8-carboxylic acid]	> 500 µM	–	–	–	–	–
CCN1CCN(C(=O)NC(C(=O)N[C@H]2Cc3cccc(C(=O)O)c3OB2O)c2ccc(S(N)(=O)=O)cc2)C(=O)C1=O (stereo partly drawn) [Example 102, (3R)-3-(2-(4-ethyl-2,3-dioxopiperazine-1-carboxamido)-2-(4-sulfamoylphenyl)acetamido)-2-hydroxy-3,4-dihydro-2H-benzo[e][1,2]oxaborinine-8-carboxylic acid]	–	> 500 µM	–	–	–	–
NS(=O)(=O)c1ccc(C(NC(=O)N2CCN(CCF)C(=O)C2=O)C(=O)N[C@H]2Cc3cccc(C(=O)O)c3OB2O)cc1 (stereo partly drawn) [Example 103, (3R)-3-(2-(4-(2-fluoroethyl)-2,3-dioxopiperazine-1-carboxamido)-2-(4-sulfamoylphenyl)acetamido)-2-hydroxy-3,4-dihydro-2H-benzo[e][1,2]oxaborinine-8-carboxylic acid]	–	> 500 µM	–	–	–	–
CCN1CCN(C(=O)NC(C(=O)N[C@H]2Cc3cccc(C(=O)O)c3OB2O)c2cccc(N)n2)C(=O)C1=O (stereo partly drawn) [Example 104, (3R)-3-(2-(6-aminopyridin-2-yl)-2-(4-ethyl-2,3-dioxopiperazine-1-carboxamido)acetamido)-2-hydroxy-3,4-dihydro-2H-benzo[e][1,2]oxaborinine-8-carboxylic acid]	–	–	30 to 500 µM	–	–	–
CCN1CCN(C(=O)NC(C(=O)N[C@H]2Cc3ccc(F)c(C(=O)O)c3OB2O)c2csc(N)n2)C(=O)C1=O (stereo partly drawn) [Example 109, (3R)-3-(2-(2-aminothiazol-4-yl)-2-(4-ethyl-2,3-dioxopiperazine-1-carboxamido)acetamido)-7-fluoro-2-hydroxy-3,4-dihydro-2H-benzo[e][1,2]oxaborinine-8-carboxylic acid]	–	> 500 µM	–	–	–	–
CCN1CCN(C(=O)NC(C(=O)N[C@H]2Cc3cccc(C(=O)O)c3OB2O)c2ncc(O)cc2F)C(=O)C1=O (stereo partly drawn) [Example 135, (3R)-3-(2-(4-ethyl-2,3-dioxopiperazine-1-carboxamido)-2-(3-fluoro-5-hydroxypyridin-2-yl)acetamido)-2-hydroxy-3,4-dihydro-2H-benzo[e][1,2]oxaborinine-8-carboxylic acid]	–	30 to 500 µM	–	–	–	–
CCN1CCN(C(=O)NC(C(=O)N[C@H]2Cc3cccc(C(=O)O)c3OB2O)c2ncc(O)cc2Cl)C(=O)C1=O (stereo partly drawn) [Example 150, (3R)-3-(2-(4-ethyl-2,3-dioxopiperazine-1-carboxamido)-2-(3-chloro-5-hydroxypyridin-2-yl)acetamido)-2-hydroxy-3,4-dihydro-2H-benzo[e][1,2]oxaborinine-8-carboxylic acid]	–	> 500 µM	–	2 to 4 µg/mL	> 128 µg/mL	> 128 µg/mL
CCN1CCN(C(=O)NC(C(=O)N[C@H]2Cc3ccc(F)c(C(=O)O)c3OB2O)c2ncc(O)cc2Cl)C(=O)C1=O (stereo partly drawn) [Example 151, (3R)-3-(2-(3-chloro-5-hydroxypyridin-2-yl)-2-(4-ethyl-2,3-dioxopiperazine-1-carboxamido)acetamido)-7-fluoro-2-hydroxy-3,4-dihydro-2H-benzo[e][1,2]oxaborinine-8-carboxylic acid]	–	> 500 µM	–	< 0.25 µg/mL	> 128 µg/mL	> 128 µg/mL
CCN1CCN(C(=O)NC(C(=O)N[C@H]2Cc3ccc(Cl)c(C(=O)O)c3OB2O)c2ncc(O)cc2F)C(=O)C1=O (stereo partly drawn) [Example 216, (3R)-7-chloro-3-(2-(4-ethyl-2,3-dioxopiperazine-1-carboxamido)-2-(3-fluoro-5-hydroxypyridin-2-yl)acetamido)-2-hydroxy-3,4-dihydro-2H-benzo[e][1,2]oxaborinine-8-carboxylic acid]	–	–	–	< 0.25 µg/mL	> 128 µg/mL	> 128 µg/mL
CCN1CCN(C(=O)NC(C(=O)N[C@H]2Cc3ccc(Cl)c(C(=O)O)c3OB2O)c2ccc(O)c(O)c2Cl)C(=O)C1=O (stereo partly drawn) [Example 217, (3R)-7-chloro-3-(2-(2-chloro-3,4-dihydroxyphenyl)-2-(4-ethyl-2,3-dioxopiperazine-1-carboxamido)acetamido)-2-hydroxy-3,4-dihydro-2H-benzo[e][1,2]oxaborinine-8-carboxylic acid]	–	–	–	< 0.25 µg/mL	2 to 4 µg/mL	0.5 to 1 µg/mL
CC[C@H]1CN(CC)C(=O)C(=O)N1C(=O)NC(C(=O)N[C@H]1Cc2cccc(C(=O)O)c2OB1O)c1ncc(O)cc1F (stereo partly drawn) [Example 218, (3R)-3-(2-((S)-4,6-diethyl-2,3-dioxopiperazine-1-carboxamido)-2-(3-fluoro-5-hydroxypyridin-2-yl)acetamido)-2-hydroxy-3,4-dihydro-2H-benzo[e][1,2]oxaborinine-8-carboxylic acid]	–	–	–	2 to 4 µg/mL	> 128 µg/mL	> 128 µg/mL
C[C@H]1CN(CCO)C(=O)C(=O)N1C(=O)NC(C(=O)N[C@H]1Cc2cccc(C(=O)O)c2OB1O)c1ccc(O)c(O)c1Cl (stereo partly drawn) [Example 224, (3R)-3-(2-(2-chloro-3,4-dihydroxyphenyl)-2-((S)-4-(2-hydroxyethyl)-6-methyl-2,3-dioxopiperazine-1-carboxamido)acetamido)-2-hydroxy-3,4-dihydro-2H-benzo[e][1,2]oxaborinine-8-carboxylic acid]	–	–	–	< 0.25 µg/mL	8 to 16 µg/mL	< 0.25 µg/mL
NCCN1CCN(C(=O)N[C@@H](C(=O)N[C@H]2Cc3cccc(C(=O)O)c3OB2O)c2ncc(O)cc2F)C(=O)C1=O [Example 225, (R)-3-((R)-2-(4-(2-aminoethyl)-2,3-dioxopiperazine-1-carboxamido)-2-(3-fluoro-5-hydroxypyridin-2-yl)acetamido)-2-hydroxy-3,4-dihydro-2H-benzo[e][1,2]oxaborinine-8-carboxylic acid]	–	–	–	0.5 to 1 µg/mL	> 128 µg/mL	> 128 µg/mL
NCCN1CCN(C(=O)N[C@@H](C(=O)N[C@H]2Cc3ccc(F)c(C(=O)O)c3OB2O)c2ccc(O)c(O)c2Cl)C(=O)C1=O [Example 227, (R)-3-((R)-2-(4-(2-aminoethyl)-2,3-dioxopiperazine-1-carboxamido)-2-(2-chloro-3,4-dihydroxyphenyl)acetamido)-7-fluoro-2-hydroxy-3,4-dihydro-2H-benzo[e][1,2]oxaborinine-8-carboxylic acid]	–	–	–	< 0.25 µg/mL	< 0.25 µg/mL	< 0.25 µg/mL
CC(=O)NCCN1CCN(C(=O)NC(C(=O)N[C@H]2Cc3cccc(C(=O)O)c3OB2O)c2ccc(O)c(O)c2Cl)C(=O)C1=O (stereo partly drawn) [Example 228, (3R)-3-(2-(4-(2-acetamidoethyl)-2,3-dioxopiperazine-1-carboxamido)-2-(2-chloro-3,4-dihydroxyphenyl)acetamido)-2-hydroxy-3,4-dihydro-2H-benzo[e][1,2]oxaborinine-8-carboxylic acid]	–	–	–	< 0.25 µg/mL	0.5 to 1 µg/mL	0.5 to 1 µg/mL
CS(=O)(=O)NCCN1CCN(C(=O)NC(C(=O)N[C@H]2Cc3cccc(C(=O)O)c3OB2O)c2ccc(O)c(O)c2Cl)C(=O)C1=O (stereo partly drawn) [Example 229, (3R)-3-(2-(2-chloro-3,4-dihydroxyphenyl)-2-(4-(2-(methylsulfonamido)ethyl)-2,3-dioxopiperazine-1-carboxamido)acetamido)-2-hydroxy-3,4-dihydro-2H-benzo[e][1,2]oxaborinine-8-carboxylic acid]	–	–	–	< 0.25 µg/mL	2 to 4 µg/mL	< 0.25 µg/mL
NCCN1CCN(C(=O)N[C@@H](C(=O)N[C@H]2Cc3ccc(F)c(C(=O)O)c3OB2O)c2ncc(O)cc2F)C(=O)C1=O [Example 230, (R)-3-((R)-2-(4-(2-aminoethyl)-2,3-dioxopiperazine-1-carboxamido)-2-(3-fluoro-5-hydroxypyridin-2-yl)acetamido)-7-fluoro-2-hydroxy-3,4-dihydro-2H-benzo[e][1,2]oxaborinine-8-carboxylic acid]	–	–	–	< 0.25 µg/mL	32 to 64 µg/mL	> 128 µg/mL
